Structures are written as SMILES. Bounds are passed on as bounds.

In one assay the target is Grp94 (Canis lupus familiaris, UniProt P41148). The assay can be described thus: FP saturation binding assay of probes, Grp94. The arrangement: species or system canine. The conditions noted are these: for assay window, Grp94: mP at saturation minus mP of probe alone.
In assay [1] the target is T1, Trap-1 (Homo sapiens, UniProt Q12931).
T1 sequence (Q12931 60-704): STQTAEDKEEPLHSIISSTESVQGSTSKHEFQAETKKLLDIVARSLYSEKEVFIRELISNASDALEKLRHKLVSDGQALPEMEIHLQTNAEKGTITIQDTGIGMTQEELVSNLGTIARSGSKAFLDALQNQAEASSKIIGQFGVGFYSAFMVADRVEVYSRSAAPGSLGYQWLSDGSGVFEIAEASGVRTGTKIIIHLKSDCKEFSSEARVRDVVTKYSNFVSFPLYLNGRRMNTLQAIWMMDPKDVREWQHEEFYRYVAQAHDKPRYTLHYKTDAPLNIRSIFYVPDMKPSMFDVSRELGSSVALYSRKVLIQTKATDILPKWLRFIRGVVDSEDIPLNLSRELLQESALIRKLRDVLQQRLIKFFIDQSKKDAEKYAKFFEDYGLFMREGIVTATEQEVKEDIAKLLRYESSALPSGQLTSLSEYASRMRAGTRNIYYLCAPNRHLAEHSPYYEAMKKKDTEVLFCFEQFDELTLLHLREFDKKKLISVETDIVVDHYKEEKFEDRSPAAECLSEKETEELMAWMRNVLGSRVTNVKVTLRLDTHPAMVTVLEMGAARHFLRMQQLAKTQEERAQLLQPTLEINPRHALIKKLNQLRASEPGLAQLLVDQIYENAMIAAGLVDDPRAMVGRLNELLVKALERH
The conditions noted are these: from FP competition IC50, Table 1.

Assay [2] has as its system Trap-1. The following applies: cited from earlier work.
The next assay addresses Hsp90α (Homo sapiens, UniProt P07900). The assay is described as follows: FP saturation binding assay of probes, Hsp90α. The following applies: mP at saturation minus mP of probe alone.
For another assay, the target named is Hsp90β (Homo sapiens, UniProt P08238). The assay is described as follows: FP saturation binding assay of probes, Hsp90β. The following applies: mP at saturation minus mP of probe alone.
Another assay concerns Hsp90 in SKBr3 lysate. The assay is described as follows: FP saturation binding of probes to Hsp90 in cancer cell lysate. The arrangement: species or system human. The following applies: 4 °C.

Sequence of Grp94 (P41148 22-804): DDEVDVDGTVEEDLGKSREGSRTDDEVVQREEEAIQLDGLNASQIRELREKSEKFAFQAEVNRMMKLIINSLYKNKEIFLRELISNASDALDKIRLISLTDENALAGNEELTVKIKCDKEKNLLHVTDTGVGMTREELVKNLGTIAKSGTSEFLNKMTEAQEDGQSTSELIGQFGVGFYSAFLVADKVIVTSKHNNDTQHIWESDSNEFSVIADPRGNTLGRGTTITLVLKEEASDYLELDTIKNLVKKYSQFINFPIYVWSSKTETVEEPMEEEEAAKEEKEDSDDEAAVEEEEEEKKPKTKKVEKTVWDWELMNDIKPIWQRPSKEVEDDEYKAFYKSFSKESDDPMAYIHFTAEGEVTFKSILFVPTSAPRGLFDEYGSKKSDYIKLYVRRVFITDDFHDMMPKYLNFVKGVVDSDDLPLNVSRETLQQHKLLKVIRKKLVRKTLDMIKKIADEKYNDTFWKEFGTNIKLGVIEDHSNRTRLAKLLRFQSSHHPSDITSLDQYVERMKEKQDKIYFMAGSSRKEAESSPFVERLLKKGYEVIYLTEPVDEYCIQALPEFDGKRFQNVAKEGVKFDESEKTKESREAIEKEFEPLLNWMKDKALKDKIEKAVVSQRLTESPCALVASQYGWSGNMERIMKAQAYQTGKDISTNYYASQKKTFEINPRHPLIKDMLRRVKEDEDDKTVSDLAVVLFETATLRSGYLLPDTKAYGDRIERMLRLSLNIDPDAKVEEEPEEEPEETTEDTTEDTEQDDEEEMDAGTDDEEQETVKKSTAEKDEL
Sequence of Hsp90β (P08238 whole entry): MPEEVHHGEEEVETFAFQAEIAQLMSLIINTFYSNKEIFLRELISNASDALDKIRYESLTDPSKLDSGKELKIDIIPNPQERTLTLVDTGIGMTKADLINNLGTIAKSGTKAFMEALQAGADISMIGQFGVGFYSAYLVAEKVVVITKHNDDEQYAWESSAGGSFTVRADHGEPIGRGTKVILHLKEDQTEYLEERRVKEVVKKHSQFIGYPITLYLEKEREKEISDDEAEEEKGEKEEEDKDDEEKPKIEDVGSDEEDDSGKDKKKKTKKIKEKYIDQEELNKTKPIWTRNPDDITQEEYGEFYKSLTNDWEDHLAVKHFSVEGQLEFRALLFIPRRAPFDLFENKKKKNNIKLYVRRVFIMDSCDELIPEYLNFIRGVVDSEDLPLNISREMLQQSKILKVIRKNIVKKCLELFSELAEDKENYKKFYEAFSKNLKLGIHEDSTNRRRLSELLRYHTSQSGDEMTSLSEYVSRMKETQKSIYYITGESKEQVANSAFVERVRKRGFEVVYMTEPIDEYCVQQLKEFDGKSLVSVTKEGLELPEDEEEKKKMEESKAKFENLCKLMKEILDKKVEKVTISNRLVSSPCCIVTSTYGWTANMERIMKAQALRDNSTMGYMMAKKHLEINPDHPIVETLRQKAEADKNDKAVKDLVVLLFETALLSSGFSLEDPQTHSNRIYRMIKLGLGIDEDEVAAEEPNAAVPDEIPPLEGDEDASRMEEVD

Take `CC(C)N(CCCn1c(Sc2cc3c(cc2I)OCO3)nc2c(N)ncnc21)C(=S)Nc1ccc(-c2c3ccc(=O)cc-3oc3cc(O)ccc23)c(C(=O)O)c1` [compound 12]: the “preference for Hsp90α, Hsp90β and Trap-1 over Grp94” value at Grp94 (from apparent Kd, saturation binding) is reported as 1 log. In addition, the “assay window, Grp94” value on Grp94 was “less than 100 mP”.

In the case of `CCNC(=O)c1noc(-c2cc(C(C)C)c(O)cc2O)c1-c1ccc(CN2CCOCC2)cc1` [compound 7], on Trap-1 [1], the “decrease in binding affinity for Trap-1 compared to Hsp90” value (shortened to “decrease in binding affinity”) is listed as 2 fold.

As for `Nc1ncnc2c1ncn2[C@@H]1O[C@H](COP(=O)(O)OP(=O)(O)OP(=O)(O)O)[C@@H](O)[C@H]1O` [ATP], in the assay on Trap-1 [2], the “reported greater affinity of Trap-1 than of Hsp90” value was “approximately 10 fold”. Further, the Kd on Trap-1 [2] (read-out: reported binding affinity for Trap-1) is 34.3 µM.

Regarding `CC(C)NCCCn1c(Sc2cc3c(cc2I)OCO3)nc2c(N)ncnc21` [compound 4], the “decrease in binding affinity” value on Trap-1 [1] was determined as 5 fold.

In the case of `Nc1ncnc2c1nc(Sc1cc3c(cc1I)OCO3)n2CCCNC(=S)Nc1ccc(-c2c3ccc(=O)cc-3oc3cc(O)ccc23)c(C(=O)O)c1` [16a], at Grp94, the “assay window, Grp94” value is greater than 150 mP. On Hsp90α, the “assay window, Hsp90α” value is reported as greater than 150 mP. The “assay window, Hsp90β” value on Hsp90β was greater than 150 mP. For the same molecule, in the assay on Hsp90 in SKBr3 lysate, the “time binding remained stable” value is recorded as “more than 24 h” and the “time to reach binding equilibrium with Hsp90” value is given as no more than 8 h.

Regarding `CN(C)c1cc2c(cc1Sc1nc3c(N)nccc3n1CCNCC(C)(C)C)OCO2` [compound 5], at Trap-1 [1], the “decrease in binding affinity” value stood at 50 fold and the “loss of affinity for Trap-1 vs Hsp90” value is on record as roughly 2 log.

Regarding `COc1c(C)cnc(Cn2cnc3c(Cl)nc(N)nc32)c1C` [compound 3], at Trap-1 [1], the “decrease in binding affinity” value was 5 fold.

With `COC1=C2C[C@@H](C)C[C@H](OC)[C@H](O)[C@@H](C)/C=C(\C)[C@H](OC(N)=O)[C@@H](OC)/C=C\C=C(/C)C(=O)NC(=CC1=O)C2=O` [compound 1, Geldanamycin], the “decrease in binding affinity” value at Trap-1 [1] was 25 fold.

Turning to `C=CCNC1=C2C[C@@H](C)C[C@H](OC)[C@H](O)[C@@H](C)/C=C(\C)[C@H](OC(N)=O)[C@@H](OC)/C=C\C=C(/C)C(=O)NC(=CC1=O)C2=O` [compound 2, 17-allyl-17-demethoxygeldanamycin], the “loss of affinity for Trap-1 vs Hsp90” value on Trap-1 [1] was roughly 2 log.
